Among the data in patent US12404285B2, “KRAS G12D proteolysis targeting chimeras” (PAQ Therapeutics Inc., priority 2022, dated 2025) are DC50 values, retold here.

Some results are limits rather than exact numbers.

T1 sequence (P01116 1-188 isoform P01116-2 G12D): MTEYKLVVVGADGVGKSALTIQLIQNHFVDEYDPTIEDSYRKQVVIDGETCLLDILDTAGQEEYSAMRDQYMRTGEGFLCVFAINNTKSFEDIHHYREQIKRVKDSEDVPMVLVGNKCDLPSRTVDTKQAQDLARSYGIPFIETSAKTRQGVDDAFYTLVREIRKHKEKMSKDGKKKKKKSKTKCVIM

The assay concerns the target T1, KRAS (G12D)-HiBit in AsPc-1-KRAS (G12D)-HiBit-KI cell (Homo sapiens, UniProt P01116, G12D).
T1 construct: host or cells: AsPc-1-KRAS (G12D)-HiBit-KI cells (knock-in line)
Put plainly: G12D HiBit assay. It counts as cell-based. As to conditions: 24 hours compound treatment, absolute DC50, read-out: Average PHA DC50. A digest of the protocol: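 AsPc-1 cells with HiBiT knocked into KRAS G12D, seeded at 5×10^3/well and held overnight, then treated 24 h with 10-point 3-fold dilutions (300 nM to 0.015 nM). Lytic Nano-Glo HiBiT luminescence expressed as % of 0.1% DMSO control; absolute DC50 from curve fit.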
In general terms: The HiBiT peptide binds its large partner to form an active luciferase.
Take `C#Cc1c(F)ccc2cccc(-c3ncc4c(N5CC6CCC(C5)N6)nc(OC[C@@]56CCCN5[C@H](COC(=O)N5CCC(N7CCN(c8cccc9c8n(C)c(=O)n9C8CCC(=O)NC8=O)CC7)CC5)CC6)nc4c3F)c12` (stereo partly drawn) [Compound 131, [(3S,8S)-8-[[4-(3,8-Diazabicyclo[3.2.1]octan-3-yl)-7-(8-ethynyl-7-fluoro-1-naphthyl)-8-fluoro-pyrido[4,3-d]pyrimidin-2-yl]oxymethyl]-1,2,3,5,6,7-hexahydropyrrolizin-3-yl]methyl4-[4-[1-(2,6-dioxo-3-piperidyl)-3-methyl-2-oxo-benzimidazol-4-yl]piperazin-1-yl]piperidine-1-carboxylate]: the DC50 was no less than 300 nM.
The result for `C#Cc1c(F)ccc2cccc(-c3ncc4c(N5CC6CCC(C5)N6)nc(OC[C@@]56CCCN5[C@H](COC(=O)N5CCC(OC7CCN(c8cccc9c8n(C)c(=O)n9C8CCC(=O)NC8=O)CC7)CC5)CC6)nc4c3F)c12` (stereo partly drawn) [Compound 99, [(3S,8S)-8-[[4-(3,8-Diazabicyclo[3.2.1]octan-3-yl)-7-(8-ethynyl-7-fluoro-1-naphthyl)-8-fluoro-pyrido[4,3-d]pyrimidin-2-yl]oxymethyl]-1,2,3,5,6,7-hexahydropyrrolizin-3-yl]methyl 4-[[1-[1-(2,6-dioxo-3-piperidyl)-3-methyl-2-oxo-benzimidazol-4-yl]-4-piperidyl]oxy]piperidine-1-carboxylate] reads less than 100 nM; that for `C#Cc1c(F)ccc2cccc(-c3ncc4c(N5CC6CCC(C5)N6)nc(OC[C@@]56CCCN5[C@H](COC(=O)N5CCC(OCc7ccc8c(c7)n(C)c(=O)n8C7CCC(=O)NC7=O)CC5)CC6)nc4c3F)c12` (stereo partly drawn) [Compound 116, [(3S,8S)-8-[[4-(3,8-Diazabicyclo[3.2.1]octan-3-yl)-7-(8-ethynyl-7-fluoro-1-naphthyl)-8-fluoro-pyrido[4,3-d]pyrimidin-2-yl]oxymethyl]-1,2,3,5,6,7-hexahydropyrrolizin-3-yl]methyl4-[[1-(2,6-dioxo-3-piperidyl)-3-methyl-2-oxo-benzimidazol-5-yl]methoxy]piperidine-1-carboxylate], no less than 300 nM.
The result for `C#Cc1c(F)ccc2cccc(-c3ncc4c(N5CC6CCC(C5)N6)nc(OC[C@@]56CCCN5[C@H](COC(=O)N5CCC(OCCC#Cc7cccc8c7n(C)c(=O)n8C7CCC(=O)NC7=O)CC5)CC6)nc4c3F)c12` (stereo partly drawn) [Compound 107, [(3S,8S)-8-[[4-(3,8-diazabicyclo[3.2.1]octan-3-yl)-7-(8-ethynyl-7-fluoro-1-naphthyl)-8-fluoro-pyrido[4,3-d]pyrimidin-2-yl]oxymethyl]-1,2,3,5,6,7-hexahydropyrrolizin-3-yl]methyl 4-[4-[1-(2,6-dioxo-3-piperidyl)-3-methyl-2-oxo-benzimidazol-4-yl]but-3-ynoxy]piperidine-1-carboxylate] reads less than 100 nM; that for `C#Cc1c(F)ccc2cccc(-c3ncc4c(N5CC6CCC(C5)N6)nc(OC[C@@]56CCCN5[C@H](COC(=O)N5CCC(Cn7cc(-c8cccc9c8n(C)c(=O)n9C8CCC(=O)NC8=O)nn7)CC5)CC6)nc4c3F)c12` (stereo partly drawn) [Compound 96, [(3S,8S)-8-[[4-(3,8-Diazabicyclo[3.2.1]octan-3-yl)-7-(8-ethynyl-7-fluoro-1-naphthyl)-8-fluoro-pyrido[4,3-d]pyrimidin-2-yl]oxymethyl]-1,2,3,5,6,7-hexahydropyrrolizin-3-yl]methyl 4-[[4-[1-(2,6-dioxo-3-piperidyl)-3-methyl-2-oxo-benzimidazol-4-yl]triazol-1-yl]methyl]piperidine-1-carboxylate], no less than 300 nM; that for `C#Cc1c(F)ccc2cccc(-c3ncc4c(N5CC6CCC(C5)N6)nc(OC[C@@]56CCCN5[C@H](COC(=O)N5CCC(CN7CCC(c8cccc9c8n(C)c(=O)n9C8CCC(=O)N(C)C8=O)CC7)CC5)CC6)nc4c3F)c12` (some centres unmarked) [Compound 79], no less than 300 nM.
Next, `C#Cc1c(F)ccc2cccc(-c3ncc4c(N5CC6CCC(C5)N6)nc(OC[C@@]56CCCN5[C@H](COC(=O)N5CCC7(CCC(CCc8cccc9c8n(C)c(=O)n9C8CCC(=O)NC8=O)CC7)CC5)CC6)nc4c3F)c12` (stereo partly drawn) [Compound 60, [(3S,8S)-8-[[4-(3,8-Diazabicyclo[3.2.1]octan-3-yl)-7-(8-ethynyl-7-fluoro-1-naphthyl)-8-fluoro-pyrido[4,3-d]pyrimidin-2-yl]oxymethyl]-1,2,3,5,6,7-hexahydropyrrolizin-3-yl]methyl 9-[2-[1-(2,6-dioxo-3-piperidyl)-3-methyl-2-oxo-benzimidazol-4-yl]ethyl]-3-azaspiro[5.5]undecane-3-carboxylate]: 100 to 300 nM; `C#Cc1c(F)ccc2cccc(-c3ncc4c(N5CC6CCC(C5)N6)nc(OC[C@@]56CCCN5[C@H](COC(=O)N5CCC(OC7CCN(Cc8ccc9c(c8)n(C)c(=O)n9C8CCC(=O)NC8=O)CC7)CC5)CC6)nc4c3F)c12` (some centres unmarked) [Compound 52]: less than 100 nM.
